Measurements reported in PubChem BioAssay AID1259418 (Broad Institute, 2018).
Several values for one entry are separate records, joined by “and”; a condition that tells them apart may be missing. Identical values can stand only once. Results filed as inconclusive are left out. Activity calls are given as the source filed them.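 The calls were made as follows: active = fitted half-maximal concentration of signal decrease at or below twice the sample's top tested concentration; inconclusive = flat curve between -70 and -30 percent, or poor fit; inactive = flat within 30 percent, signal rise, or potency above limit.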 Starred links: 1 amine or outer side, 2 acyl side, 3 side chain; linkers in the order of their positions; H or OH if unused. Non-standard residues stand in square brackets, D forms with d. Residues, ends and D or L forms follow the SMILES beside them. Groups on a side chain read outwards from the residue. *: point of attachment. Ethylenediamine = C(CN[*:2])N[*:1]; Hyp = O=C(O)[C@@H]1C[C@@H](O)CN1; Phg = N[C@H](C(=O)O)c1ccccc1; CO = O=C([*:1])[*:2]; Bn = c1ccc(C*)cc1

molecular target: T. gondii ME49Luc in IFN-y HeLa, luciferase, 72 h; experiment: T. gondii growth inhibition with IFN-gamma, dose response, cell-based, ME49Luc, HeLa, luciferase, 72 h (AID 1259418)

Point of comparison: `O=C(CCC1N=C2c3ccccc3N=C(SCc3cc(=O)n4cc(Cl)ccc4n3)N2C1=O)NCc1cccs1` (configuration not stated), AC50 32 µM. Against it:
- O=C(Nc1ccc(F)cc1)N1CC(=O)N2[C@H](C1)[C@H](c1ccc(-c3cccc(F)c3)cc1)[C@@H]2CO — 1.8-fold lower, 17.9 µM
- O=C(Cc1ccccn1)N1CC(=O)N2[C@@H](CO)[C@@H](c3ccc(C#CCC4CCCC4)cc3)[C@@H]2C1 — 2.4-fold lower, 13.2 µM
- COc1ccccc1-c1ccc([C@@H]2[C@H](CO)N3CCCCN(C(=O)c4cccnc4)C[C@@H]23)cc1 — 1.9-fold lower, 17.2 µM
- COc1ccc(CNC2=NCCNC23CCN(S(=O)(=O)c2ccc(Cl)s2)CC3)cc1 — 8.2-fold lower, 3.91 µM
- O=C(Nc1ccc(-c2nc(-c3ccccc3)co2)cc1)c1cccc(Cl)c1 — within 1.5-fold, 35.3 µM
- NCCCC[C@@H]1NC(=O)[C@@H](Cc2c[nH]c3ccccc23)NC(=O)[C@H](c2ccccc2)NC(=O)[C@@H]2C[C@@H](OC(=O)NCCN)CN2C(=O)[C@H](Cc2ccccc2)NC(=O)[C@H](Cc2ccc(OCc3ccccc3)cc2)NC1=O (cyclo([Hyp]([CO-Ethylenediamine])[Phg][dW]KY(Bn)F)) — 2-fold lower, 15.9 µM
- Fc1ccc(Nc2nc(SCc3ccc(Cl)cc3)nc3ccccc23)cc1F — 1.8-fold lower, 17.3 µM
- O=C(c1ccc(F)cc1)N1CC(=O)N2[C@@H](CO)[C@@H](c3ccc(C#CCC4CCCC4)cc3)[C@@H]2C1 — within 1.5-fold, 23.5 µM
- CCCNC(=O)N1[C@H](CO)[C@@H](c2ccc(-c3ccccc3F)cc2)[C@@H]1C#N — 1.6-fold lower, 19.9 µM
- Cc1cccc(CNC2=NCCNC23CCN(S(=O)(=O)c2cc(C)cc(C)c2)CC3)c1 — within 1.5-fold, 25.7 µM
- COc1ccccc1Cn1ncc2c1CCCC2NC(=O)c1cc(-c2cccs2)no1 (configuration not stated) — 2.3-fold lower, 14.1 µM
- Cc1ccc(-c2csc(-c3cccn3CC(=O)NCCN3CCC(C)CC3)n2)cc1 — 5-fold lower, 6.43 µM
- COCCNc1nc(-c2ccc(OC)cc2)nc2ccccc12 — 1.7-fold lower, 18.4 µM
- Cc1cc(C)c(S(=O)(=O)N2CCC[C@@H]2C(=O)NCCc2csc(C)n2)c(C)c1 — within 1.5-fold, 31.9 µM
- CCCc1cc(C2CCCN2C(=O)Cn2nc(C(F)(F)F)c3c2CCCC3)no1 (configuration not stated) — within 1.5-fold, 21.6 µM
- CCCNC(=O)N1CC(=O)N2[C@@H](CO)[C@@H](c3ccc(C#Cc4cccc(OC)c4)cc3)[C@@H]2C1 — 1.7-fold lower, 19.2 µM
- N#Cc1ccc(-c2ccc([C@@H]3[C@@H]4CN(C(=O)Nc5ccc6c(c5)OCO6)C[C@H]3N4)cc2)cc1 — 1.8-fold lower, 17.9 µM
- CCc1ccc(S(=O)(=O)Nc2ccc(-c3nc(-c4ccc(C)cc4C)co3)cc2)cc1 — 3.8-fold lower, 8.52 µM
- O=C(Nc1ccccc1)N1CC2CN(Cc3ccc(C(F)(F)F)cc3)C2C1 (configuration not stated) — within 1.5-fold, 36.6 µM
- COCCN(CCOC)C(=O)c1cc2c(c3ccccc3n2CC2CC2)n1-c1ncccn1 — within 1.5-fold, 28 µM
- COc1cccc(-c2nc3c(s2)CN(S(=O)(=O)c2ccc(C)cc2)CC3)c1 — within 1.5-fold, 25.9 µM
- Cc1ccc(C)c(S(=O)(=O)N2CCC3(CC2)NCCN=C3NCc2ccccc2Cl)c1 — 6-fold lower, 5.36 µM
- Cc1ccc(NC(=O)N2CCN(Cc3nc(-c4cccc(Cl)c4)oc3C)CC2)cc1Cl — 2-fold lower, 15.7 µM
- COc1ccccc1C(=O)Nc1ccc(-c2nc(-c3ccc(C)cc3)co2)cc1 — 1.7-fold lower, 19.1 µM
- O=C(Cc1ccncc1)N1CCCCN2[C@H](CO)[C@H](c3ccc(C#Cc4ccccc4F)cc3)[C@@H]2C1 — 3.8-fold lower, 8.53 µM
- COc1ccc(-c2nc(CN(c3ccccc3OC)S(=O)(=O)c3ccccc3)c(C)o2)cc1OC — 8.9-fold lower, 3.59 µM
- Cc1cc(C(=O)N2CCC(c3cc4c(ncn4C)c(NCC4CC4)n3)CC2)ccc1Cl — within 1.5-fold, 23.1 µM
- COc1ccc(-c2nc(NCC3CCN(Cc4ccc(C)cc4)CC3)c3ccccc3n2)cc1 — 3.7-fold lower, 8.66 µM
- COc1ccc(-c2nc(N3CCN(C4CCCCC4)CC3)c3ccccc3n2)cc1 — within 1.5-fold, 30.1 µM
- Cc1ccc(S(=O)(=O)N2CCC3(CC2)NCCN=C3NCc2ccc(F)c(Cl)c2)cc1C — 1.9-fold lower, 16.5 µM
- Cc1cc(C(C)(C)CC(C)(C)C)ccc1OCCOCC[N+](C)(C)Cc1ccccc1 — 2.1-fold lower, 14.9 µM
- Cc1ccc(-c2noc(-c3ccc(N4CCC(N5CCCCC5)CC4)nc3)n2)cc1 — within 1.5-fold, 24.8 µM
- CCOc1ccccc1NS(=O)(=O)c1cc2c3c(c1)CCC(=O)N3CCC2 — within 1.5-fold, 26.1 µM
- Cc1cc(C(=O)Nc2ccc3c(c2)C(=O)N(C)[C@@H]2CC[C@@H](CC(=O)NCc4ccc(-c5ccccc5)cc4)O[C@@H]2CO3)no1 — 1.5-fold lower, 20.8 µM
- Clc1ccc(-n2ncc3c(NCc4cccc(Cl)c4)ncnc32)cc1 — 1.9-fold lower, 16.9 µM
- COc1ccc(CNC2=NCCNC23CCN(S(=O)(=O)c2cc(C)c(C)cc2C)CC3)cc1 — 2.5-fold lower, 12.6 µM
- COc1ccc(S(=O)(=O)N2CCCCN3[C@H](CO)[C@H](c4ccc(C#CCC(C)C)cc4)[C@H]3C2)cc1 — 5.8-fold lower, 5.52 µM
- COc1ccc(-c2nc(NC3CCCC3)c3ccccc3n2)cc1 — within 1.5-fold, 35.8 µM
- COc1ccccc1-c1nc(CN(c2ccc(C)cc2)S(=O)(=O)c2cccs2)c(C)o1 — within 1.5-fold, 30.4 µM
- COc1ccc(-c2nc(NCCN3CCCCC3C)c3ccccc3n2)cc1 (configuration not stated) — 2.4-fold lower, 13.4 µM
- C(=C\c1ccc(C2[C@@H]3CN(Cc4nccs4)C[C@H]2N3)cc1)/c1ccccc1 (some centres not stated) — 1.9-fold lower, 17.1 µM
- COc1ccc(-c2nc(CN(c3ccccc3)S(=O)(=O)c3cccs3)c(C)o2)cc1OC — 4.7-fold lower, 6.84 µM
- O=C1c2cccc(O)c2C(=O)c2c(O)cc(CO)cc21 — 1.9-fold lower, 16.6 µM
- Cc1nc(CCNC(=O)[C@H]2CCCN2S(=O)(=O)c2ccccc2)cs1 — within 1.5-fold, 32.3 µM
- O=S(=O)(c1cccs1)N1CCCCN2[C@H](CO)[C@H](c3ccc(/C=C/c4ccccc4)cc3)[C@@H]2C1 — 1.7-fold lower, 18.8 µM
- CC(C)(C)CC(C)(C)c1ccc(OCCOCC[N+](C)(C)Cc2ccccc2)cc1 — 2.1-fold lower, 15.6 µM
- Cc1ccc(S(=O)(=O)N2CCC3(CC2)NCCN=C3NCc2ccccc2)c(C)c1 — 1.7-fold lower, 19.2 µM
- CC(C)CCN1Cc2c(C(=O)NC3CCCCC3)ncn2-c2ccccc2S1(=O)=O — 1.6-fold lower, 20.6 µM
- CCCNC(=O)[C@H]1[C@H](CO)[C@H]2Cn3c(ccc(C4=CCCCC4)c3=O)[C@H]2N1Cc1ccccc1F — 3.6-fold lower, 8.99 µM
- Cc1cc(C(F)(F)F)nn1CC(=O)N1CCCC1c1cc(C(C)C)on1 (configuration not stated) — within 1.5-fold, 32.6 µM
- O=C(Cc1ccncc1)N1CCCCN2[C@H](C1)[C@@H](c1ccc(C#Cc3ccccc3F)cc1)[C@@H]2CO — 6.4-fold lower, 5.02 µM
- COc1ccc(-c2nc(NCCCN3CCC(N4CCCCC4)CC3)c3ccccc3n2)cc1 — within 1.5-fold, 31.3 µM
- CCOc1ccc(-c2nc(CN(c3ccccc3OC)S(=O)(=O)c3ccccc3)c(C)o2)cc1 — 3.9-fold lower, 8.3 µM
- Cn1ncnc1[C@H]1c2n[nH]c(=O)c3cc(F)cc(c23)N[C@@H]1c1ccc(F)cc1 — within 1.5-fold, 38.6 µM
- COc1ccc(N(Cc2nc(-c3ccccc3OC)oc2C)S(=O)(=O)c2ccc(OC)cc2)cc1 — 1.8-fold lower, 17.9 µM
- CCc1ccccc1-c1cccc(-n2cnnc2)c1 — 1.6-fold lower, 19.9 µM
- COc1ccc(NS(=O)(=O)c2cc3c4c(c2)CCC(=O)N4CCC3)cc1OC — within 1.5-fold, 28.4 µM
- CCOc1ccc(-c2nc(CN3CCN(C(=O)Nc4ccc(Cl)cc4)CC3)c(C)o2)cc1 — 6.2-fold lower, 5.17 µM
- COc1ccc(-c2ccc([C@H]3[C@H]4CN(Cc5ccccc5)CC(=O)N4[C@H]3CO)cc2)cc1 — 1.5-fold lower, 21 µM
- COc1ccc(-c2ccc3c(c2)[C@H]2[C@H](CCN2C(=O)c2cccc(F)c2)[C@H](CO)N3)cc1 — 2-fold lower, 16 µM
- COc1ccc(-c2nc(Cn3nnc(-c4nc(-c5ccc(OC)c(OC)c5)no4)c3C)c(C)o2)cc1 — 1.6-fold lower, 20.6 µM
- O=C1CCc2cc(S(=O)(=O)NCCc3ccccc3)cc3c2N1CCC3 — 2.3-fold lower, 14 µM
- Cc1ccc(CN2CC3CN(Cc4cccc(F)c4)CC3C2)s1 (configuration not stated) — 3.5-fold lower, 9.23 µM
- COc1ccc(-c2nc(NCCc3ccc(OC)c(OC)c3)c3ccccc3n2)cc1 — 1.8-fold lower, 17.4 µM
- Cc1cc(C)c(S(=O)(=O)N2CCC3(CC2)NCCN=C3NC2CCCCC2)cc1C — 5-fold lower, 6.34 µM
- Cc1nc(OCC(=O)NCc2ccc3c(c2)OCO3)c2ccccc2n1 — 1.5-fold lower, 21.2 µM
- O=C(NCCc1csc(-c2ccccc2)n1)[C@H]1CCCN1C(=O)c1ccccc1 — within 1.5-fold, 36.5 µM
- O=C(NCCc1csc(-c2ccccc2)n1)C1CCN(S(=O)(=O)c2ccc(F)cc2)CC1 — 2.8-fold lower, 11.4 µM
- O=C1CCc2cc(S(=O)(=O)N3CCc4ccccc4C3)cc3c2N1CCC3 — within 1.5-fold, 31.1 µM
- CCOc1ccc(-c2nc(CN3CCN(C(=O)Nc4ccc(C)cc4Cl)CC3)c(C)o2)cc1 — within 1.5-fold, 24.1 µM
- CC(C)CNC(=O)c1cc(-c2ccn(CC3CC3)n2)n2ccccc12 — 2.4-fold lower, 13.3 µM

`COc1ccc(-c2nc(NCCCN3CCN(Cc4ccccc4)CC3)c3ccccc3n2)cc1` was tested, and the AC50 was > 39 µM (inactive).
For `COc1ccc(-c2nc3c(s2)CN(C(=O)Nc2cccc(C)c2)CC3)cc1OC`, the AC50 was > 39 µM (inactive).
For `COc1ccc2c(c1)NC1(CCN(C(=O)Cc3ccc(OC)c(OC)c3)CC1)c1cccn1-2`, the AC50 was > 39 µM (inactive).
With `CCOc1ccc(NC(=O)CN2CCC3(CC2)N=C(c2ccc(Cl)cc2)C(=O)N3)cc1` the AC50 was > 39 µM (inactive).
With `COc1ccc(S(=O)(=O)N2CCC(C(=O)NCCc3csc(-c4ccccc4)n3)CC2)cc1` the AC50 was > 20 µM (inactive).
For `Cc1nc(OCC(=O)Nc2ccc(Cl)c(Cl)c2)c2ccccc2n1`, the AC50 was > 39 µM (inactive).
With `COc1ccccc1C1CN(Cc2cccc(O)c2)Cc2ccccc2O1` (configuration not stated) the AC50 was 34.4 µM and 27.5 µM.
In the case of `COc1ccccc1NC(=O)N1C[C@H](O)COC[C@@H]2O[C@@H](CC(=O)N3CCC(Cc4ccccc4)CC3)CC[C@H]21`, the AC50 is reported as 22.9 µM and > 39 µM (inactive).
`O=C(Cc1ccccn1)N1CC(=O)N2[C@H](CO)[C@H](c3ccc(C#CCC4CCCC4)cc3)[C@H]2C1` was tested, and the AC50 was 19.4 µM and 8.78 µM.
With `CC(C)CC#Cc1ccc([C@H]2[C@H]3CN(C(=O)Nc4cc(F)ccc4F)CC(=O)N3[C@H]2CO)cc1` the AC50 was > 39 µM (inactive) and 8.8 µM.
In the case of `CCc1cnc(N2[C@H](C#N)[C@@H](c3ccc(C#Cc4ccccc4F)cc3)[C@H]2CO)s1`, the AC50 is reported as 20.5 µM and 6.21 µM.
`Cc1ccc(NC(=O)N2CCN(Cc3nc(-c4cccc(Cl)c4)oc3C)CC2)cc1` was tested, and the AC50 was > 39 µM (inactive).
In the case of `COc1cccc(NC(=O)N2CC(=O)N3[C@H](CO)[C@@H](c4ccc(C#CCC5CCCC5)cc4)[C@@H]3C2)c1`, the AC50 is reported as 11.9 µM and 9.9 µM.
With `COc1cccc(-c2nc3c(s2)CN(S(=O)(=O)c2ccccc2C)CC3)c1` the AC50 was 6.95 µM and 17.2 µM.
With `Cc1ccc(-c2nc(CN3CCN(C(=O)Nc4ccc(C)c(Cl)c4)CC3)c(C)o2)cc1` the AC50 was > 39 µM (inactive).
`Clc1ccccc1CSc1nc(NCc2ccccc2)c2ccccc2n1` was tested, and the AC50 was > 39 µM (inactive).
In the case of `CCCCOc1ccc2c(=O)c(-c3cc(C(=O)OC)oc3C)c(C(F)(F)F)oc2c1C`, the AC50 is reported as 4.38 µM and 7.67 µM.
For `O=C1CCc2cc(S(=O)(=O)NCc3ccco3)cc3c2N1CCC3`, the AC50 was > 39 µM (inactive).
`O=C(Nc1ccc(F)cc1)N1CC(=O)N2[C@H](C1)[C@@H](c1ccc(-c3cccc(F)c3)cc1)[C@@H]2CO` was tested, and the AC50 was 8.5 µM and 5.04 µM.
`Cc1ccc(N(Cc2nc(-c3cccc(Cl)c3)oc2C)S(=O)(=O)c2cccs2)cc1` was tested, and the AC50 was 5.3 µM and 7.96 µM.
